Data published in patent US8906852B2 (MethylGene Inc., priority 2010, dated 2014).

molecular target: T1, VEGFR/KDR (Homo sapiens, UniProt P35968); test: VEGFR/KDR kinase inhibition, DELFIA assay; type: biochemical; conditions: ATP 0.6 uM (2x Km), enzyme 5 nM
T1 construct: made in house; host or cells: Sf9 cells (Spodoptera frugiperda), baculovirus
Description: Inhibition of VEGFR/KDR is measured in a DELFIA™ assay (Perkin Elmer). The substrate poly(Glu4, Tyr) is immobilized onto black high-binding polystyrene 96-well plates. The coated plates are washed and stored at 4° C. During the assay, the enzyme is pre-incubated with inhibitor and Mg-ATP on ice in polypropylene 96-well plates for 4 minutes, and then transferred to the coated plates. The subsequent kinase reaction takes place at 30° C. for 10-30 minutes. ATP concentrations in the assay are 0.6 uM for VEGFR/KDR (2× the Km). Enzyme concentration is 5 nM. After incubation, the kinase reactions are quenched with EDTA and the plates are washed. Phosphorylated product is detected by incubation with Europium-labeled anti-phosphotyrosine MoAb. After washing the plates, bound MoAb is detected by time-resolved fluorescence in a Gemini SpectraMax reader (Molecular Devices). Compounds are evaluated over a range of concentrations, and IC50 values (concentration of compounds giving 50% inhibition of enzymatic activity) are determined.

T1 sequence (P35968 806-1356): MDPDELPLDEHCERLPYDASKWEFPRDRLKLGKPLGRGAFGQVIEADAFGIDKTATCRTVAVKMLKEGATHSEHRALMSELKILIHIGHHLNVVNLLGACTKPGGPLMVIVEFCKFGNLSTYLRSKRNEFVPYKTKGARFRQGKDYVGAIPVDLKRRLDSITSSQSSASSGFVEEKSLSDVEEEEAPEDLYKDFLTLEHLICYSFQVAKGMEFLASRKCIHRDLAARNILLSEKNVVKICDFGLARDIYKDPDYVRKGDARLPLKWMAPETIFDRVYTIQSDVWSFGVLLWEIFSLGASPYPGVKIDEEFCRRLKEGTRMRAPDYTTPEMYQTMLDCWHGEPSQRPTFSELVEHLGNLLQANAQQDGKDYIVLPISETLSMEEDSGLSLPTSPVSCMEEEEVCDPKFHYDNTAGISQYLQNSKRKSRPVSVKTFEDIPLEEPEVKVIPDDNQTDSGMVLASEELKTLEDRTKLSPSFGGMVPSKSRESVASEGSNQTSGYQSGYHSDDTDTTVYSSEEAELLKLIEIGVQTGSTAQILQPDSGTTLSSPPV

IC50 [nM] | Structure (SMILES)
< 50 | O=C(CCc1cccnc1)NC1CCN(Cc2ccc(-c3cc4nccc(Oc5ccc(NC(=O)NC6CC6)cc5F)c4s3)nc2)CC1 [Compound 348]
100 to 250 | COCCNCc1ccc(-c2cc3nccc(Oc4ccc(NC(=O)NC5CC5)nc4)c3s2)nc1 [Compound 29, 1-cyclopropyl-3-(5-(2-(5-((2-methoxyethylamino)methyl)pyridin-2-yl)thieno[3,2-b]-pyridin-7-yloxy)pyridin-2-yl)urea]
50 to 100 | CCOC(=O)C1CCN(C(=O)c2cc3nccc(Oc4ccc(NC(=O)NC5CC5)cc4F)c3s2)CC1 [Compound 457]
< 50 | O=C(Nc1ccc(Oc2ccnc3cc(-c4ccc(CN5CC[C@H](O)C5)cn4)sc23)c(F)c1)NC1CC1 [Compound 52, (S)-1-cyclopropyl-3-(3-fluoro-4-(2-(5-((3-hydroxypyrrolidin-1-yl)methyl)pyridin-2-yl)thieno[3,2-b]-pyridin-7-yloxy)phenyl)urea]
< 50 | CN(C(=O)CO)C1CCN(Cc2ccc(-c3cc4nccc(Oc5ccc(NC(=O)NC6CC6)cc5F)c4s3)nc2)CC1 [Compound 413]
< 50 | CCN(CC)CCNC(=O)c1ccc(NCc2ccc(-c3cc4nccc(Oc5ccc(NC(=O)NC6CC6)cc5F)c4s3)nc2)cc1 [Compound 340, 4-((6-(7-(4-(3-cyclopropylureido)-2-fluorophenoxy)thieno[3,2-b]pyridin-2-yl)pyridin-3-yl)methylamino)-N-(2-(diethylamino)ethyl)benzamide]
< 50 | CCOC(=O)CN1CCN(Cc2ccc(-c3cc4nccc(Oc5ccc(NC(=O)NC6CC6)cc5F)c4s3)nc2)CC1 [Compound 60, ethyl 2-(4-((6-(7-(4-(3-cyclopropylureido)-2-fluorophenoxy)-thieno[3,2-b]pyridin-2-yl)pyridin-3-yl)methyl)piperazin-1-yl)acetate]
< 50 | CCOC(=O)Cc1csc(NC(=O)Cn2cc(-c3cc4nccc(Oc5ccc(NC(=O)NC6CC6)cc5F)c4s3)nn2)n1 [Compound 375]
50 to 100 | COCCN(Cc1ccc(-c2cc3nccc(Oc4ccc(NC(=O)NC5CC5)nc4)c3s2)nc1)C(C)=O [Compound 40, N-((6-(7-(6-(3-cyclopropylureido)-pyridin-3-yloxy)thieno[3,2-b]-pyridirin-2-yl)pyridin-3-yl)methyl)-N-(2-methoxyethyl)-acetamide]
< 50 | O=C(Nc1ccc(Oc2ccnc3cc(-c4ccc(CN5CCC(O)CC5)cn4)sc23)c(F)c1)NC1CC1 [Compound 599, 1-Cyclopropyl-3-(3-fluoro-4-(2-(5-((4-hydroxypiperidin-1-yl)methyl)pyridin-2-yl)thieno[3,2-b]pyridin-7-yloxy)phenyl)urea]
< 50 | O=C(Nc1ccc(Oc2ccnc3cc(-c4ccc(CN5CCCC5=O)nc4)sc23)c(F)c1)NC1CC1 [Compound 283, 1-cyclopropyl-3-(3-fluoro-4-(2-(6-((2-oxopyrrolidin-1-yl)methyl)pyridin-3-yl)thieno[3,2-b]pyridin-7-yloxy)phenyl)urea]
< 50 | O=C(Nc1ccc(Oc2ccnc3cc(-c4ccc(C(=O)N5CCCC(C(=O)O)C5)cn4)sc23)c(F)c1)NC1CC1 (stereo not drawn) [Compound 240, 1-(6-(7-(4-(3-cyclopropylureido)-2-fluorophenoxy)thieno[3,2-b]-pyridin-2-yl)nicotinoyl)piperidine-3-carboxylic acid]
< 50 | O=C(Nc1ccc(Oc2ccnc3cc(-c4cn(CCC(=O)N5CCCCC5)nn4)sc23)c(F)c1)NC1CC1 [Compound 379]
< 50 | O=C(Nc1ccc(Oc2ccnc3cc(-c4ccc(CN5CCN(C(=O)[C@H]6CCC(=O)O6)CC5)cn4)sc23)c(F)c1)NC1CC1 [Compound 543]
< 50 | O=C(Nc1ccc(Oc2ccnc3cc(-c4ccc(CN5CC(C(=O)O)C5)cn4)sc23)c(F)c1)NC1CC1 [Compound 477, 1-((6-(7-(4-(3-cyclopropylureido)-2-fluorophenoxy)thieno[3,2-b]pyridin-2-yl)pyridin-3-yl)methyl)azetidine-3-carboxylic acid]
< 50 | CNC(=O)NC1CCN(Cc2ccc(-c3cc4nccc(Oc5ccc(NC(=O)NC6CC6)cc5F)c4s3)nc2)CC1 [Compound 352]
< 50 | O=C(Nc1ccc(Oc2ccnc3cc(-c4cn(CC(=O)N5CCCCC5)nn4)sc23)c(F)c1)NC1CC1 [Compound 372, 1-cyclopropyl-3-(3-fluoro-4-(2-(1-(2-oxo-2-(piperidin-1-yl)ethyl)-1H-1,2,3-triazol-4-yl)thieno[3,2-b]pyridin-7-yloxy)phenyl)urea]
< 50 | CN(C)CCNCC(=O)N1CCN(Cc2ccc(-c3cc4nccc(Oc5ccc(NC(=O)NC6CC6)cc5F)c4s3)nc2)CC1 [Compound 549, 1-cyclopropyl-3-(4-(2-(5-((4-(2-(2-(dimethylamino)ethylamino)acetyl)piperazin-1-yl)methyl)pyridin-2-yl)thieno[3,2-b]pyridin-7-yloxy)-3-fluorophenyl)urea]
< 50 | O=C(Nc1ccc(Oc2ccnc3cc(-c4ccc(CN5CCCC(C(=O)NCCO)C5)cn4)sc23)c(F)c1)NC1CC1 (stereo not drawn) [Compound 492, 1-((6-(7-(4-(3-cyclopropylureido)-2-fluorophenoxy)thieno[3,2-b]pyridin-2-yl)pyridin-3-yl)methyl)-N-(2-hydroxyethyl)piperidine-3-carboxamide]
< 50 | NC1CN(Cc2ccc(-c3cc4nccc(Oc5ccc(NC(=O)NC6CC6)cc5F)c4s3)nc2)C1 [Compound 402]
< 50 | COCCOCCOCCOCCNCc1ccc(-c2cc3nccc(Oc4ccc(NC(=O)NC5CC5)c(F)c4F)c3s2)nc1 [Compound 171, 1-(4-(2-(5-5,8,11,14-tetraoxa-2-azapentadecylpyridin-2-yl)thieno[3,2-b]pyridin-7-yloxy)-2,3-diiluorophenyl)-3-cyclopropylurea]
< 50 | NC1CCN(C(=O)c2ccc(-c3cc4nccc(Oc5ccc(NC(=O)NC6CC6)cc5F)c4s3)nc2)CC1 [Compound 400]
≥ 250 | CC1=C(/C=C/C(C)=C/C=C/C(C)=C/C(=O)N2CCN(Cc3ccc(-c4cc5nccc(Oc6ccc(NC(=O)NC7CC7)cc6F)c5s4)nc3)CC2)C(C)(C)CCC1 [Compound 548, 1-cyclopropyl-3-(4-(2-(5-((4-((2E,4E,6E,8E)-3,7-dimethyl-9-(2,6,6-trimethylcyclohex-1-enyl)nona-2,4,6,8-tetraenoyl)piperazin-1-yl)methyl)pyridin-2-yl)thieno[3,2-b]pyridin-7-yloxy)-3-fluorophenyl)urea]
< 50 | O=C(CCn1cncn1)NC1CCN(Cc2ccc(-c3cc4nccc(Oc5ccc(NC(=O)NC6CC6)cc5F)c4s3)nc2)CC1 [Compound 347]
< 50 | COCCN(CCn1cc(-c2cc3nccc(Oc4ccc(NC(=O)NC5CC5)cc4F)c3s2)cn1)C(C)=O [Compound 254, N-(2-(4-(7-(4-(3-cyclopropylureido)-2-fluorophenoxy)thieno[3,2-b]pyridine-2-yl)-1H-pyrazol-1-yl)ethyl)-N-(2-methoxyethyl)acetamide]
< 50 | O=C(Nc1ccc(Oc2ccnc3cc(-c4ccc(CN5CCC(C(=O)O)CC5)cn4)sc23)c(F)c1)NC1CC1 [Compound 62, l-((6-(7-(4-(3-cyclopropylureido)-2-fluorophenoxy)thieno[3,2-b]pyridin-2-yl)pyridin-3-yl)methyl)piperidine-4-carboxylic acid]
< 50 | O=C(Nc1ccc(Oc2ccnc3cc(-c4ccc(C(=O)N5CCN(CCOCCO)CC5)cn4)sc23)c(F)c1)NC1CC1 [Compound 396]
